# From US20240327393A1 (SIRONAX LTD., priority 2021, published 2024)
# Tested on: HT-1080 (ATCC, CCL-121) cells
# Experiment: HT-1080 cell viability assay with ferroptosis inducer RSL3 (Cell Titer-Glo)
# Type: cell-based
# Settings: HT-1080 cells treated with RSL3; 3-fold, 10-point dilution, 1.1 μM highest concentration; Table 3; read-out: EC50 (nM), ferroptosis inhibitory activity
# Method in brief: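 EC50 was derived by sigmoidal dose-response regression of CellTiter-Glo luminescence viability, expressed relative to untreated wells. Compounds were tested in a ten-point, threefold dilution series (highest 1.1 μM) in the presence of the ferroptosis inducer RSL3. HT-1080 cells had been seeded at 6000 per well and grown overnight first.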
row,EC50 [nM],Compound
1,0.1 to 100,"Cc1cc(N2CCC(C(F)(F)F)CC2)ccc1Nc1ccc2c(c1)CNC2 [Compound 544, N-(2-methyl-4-(4-(trifluoromethyl)piperidin-1-yl)phenyl)isoindolin-5-amine]"

# Same assay, conditions: Homo sapiens; HT-1080 cells treated with RSL3; 3-fold, 10-point dilution, 1.1 μM highest concentration; Table 2; read-out: EC50 (nM), ferroptosis inhibitory activity
row,Compound,EC50 [nM]
1,"COCCOCCN(C)c1ccc(Nc2ccc3c(c2)n(C)c(=O)n3C)cc1 [Compound 369, 5-((4-((2-(2-methoxyethoxy)ethyl)(methyl)amino)phenyl)amino)-1,3-dimethyl-1,3-dihydro-2H-benzo[d]imidazol-2-one]",100 to 1000
2,"CN1C(=O)COc2cc(Nc3ccc(N4CC(C)(C)OC(C)(C)C4)cc3)ccc21 [Compound 93, 4-methyl-7-((4-(2,2,6,6-tetramethylmorpholino)phenyl)amino)-2H-benzo[b][1,4]oxazin-3(4H)-one]",0.1 to 100
3,"CC(C)(C)C(=O)N1Cc2ccc(Nc3ccc(N4CCC(C(F)(F)F)CC4)cc3)cc2C1 [Compound 181, 2,2-dimethyl-1-(5-((4-(4-(trifluoromethyl)piperidin-1-yl)phenyl)amino)isoindolin-2-yl)propan-1-one]",0.1 to 100
4,"CC1(C)CCC(c2ccc(Oc3ccc4nc(N)sc4c3)cc2)CC1 [Compound 408, 6-(4-(4,4-dimethylcyclohexyl)phenoxy)benzo[d]thiazol-2-amine]",0.1 to 100
5,"CCCCCN(CC)c1ccc(Nc2ccc3c(c2)OCC(=O)N3C)cc1 [Compound 30, 7-((4-(ethyl(pentyl)amino)phenyl)amino)-4-methyl-2H-benzo[b][1,4]oxazin-3(4H)-one]",0.1 to 100
6,"CN(C)c1cn(C)c2cccc(Nc3ccc(N4CCC(C(F)(F)F)CC4)cc3)c12 [Compound 399, N3,N3,1-trimethyl-N4-(4-(4-(trifluoromethyl)piperidin-1-yl)phenyl)-1H-indole-3,4-diamine]",0.1 to 100
7,"CC1CN(c2ccc(Nc3ccc4c(c3)OC(C)C(=O)N4)cc2)CC(C)O1 (stereo not shown) [Compound 139, 7-((4-(2,6-dimethylmorpholino)phenyl)amino)-2-methyl-2H-benzo[b][1,4]oxazin-3(4H)-one]",0.1 to 100

# The next lines start with the values.
row,EC50 [nM],Compound
1,0.1 to 100,"Cc1cc(=O)oc2cc(Nc3ccc(N4CCC(C(F)(F)F)CC4)cc3)ccc12 [Compound 119, 4-methyl-7-((4-(4-(trifluoromethyl)piperidin-1-yl)phenyl)amino)-2H-chromen-2-one]"
2,0.1 to 100,"CCN1C(=O)COc2cc(Nc3ccc(N4CCC(C(F)(F)F)CC4)cc3)ccc21 [Compound 16, 4-ethyl-7-((4-(4-(trifluoromethyl)piperidin-1-yl)phenyl)amino)-2H-benzo[b][1,4]oxazin-3(4H)-one]"
3,0.1 to 100,"NC(=O)CCN1C(=O)COc2cc(Nc3ccc(N4CCC(C(F)(F)F)CC4)cc3)ccc21 [Compound 15, 3-(3-oxo-7-((4-(4-(trifluoromethyl)piperidin-1-yl)phenyl)amino)-2,3-dihydro-4H-benzo[b][1,4]oxazin-4-yl)propanamide]"
4,0.1 to 100,"CCCCCOc1ccc(Nc2ccc3c(c2)OCC(=O)N3C)cc1OC [Compound 32, 7-((3-methoxy-4-(pentyloxy)phenyl)amino)-4-methyl-2H-benzo[b][1,4]oxazin-3(4H)-one]"
5,0.1 to 100,"CCCCCOc1ccc(Nc2ccc3c(c2)n(C)c(=O)n3C)cc1OC [Compound 296, 5-((3-methoxy-4-(pentyloxy)phenyl)amino)-1,3-dimethyl-1,3-dihydro-2H-benzo[d]imidazol-2-one]"
6,0.1 to 100,"Cn1c(=O)c2ccc(Nc3ccc(N4CCC(C(F)(F)F)CC4)c(F)c3)cc2n1C(=O)OC(C)(C)C [Compound 216, tert-butyl 6-((3-fluoro-4-(4-(trifluoromethyl)piperidin-1-yl)phenyl)amino)-2-methyl-3-oxo-2,3-dihydro-1H-indazole-1-carboxylate]"
7,0.1 to 100,"COCCOc1ccc(Nc2ccc3c(c2)CN(C)C3=O)cc1 [Compound 237, 5-((4-(2-methoxyethoxy)phenyl)amino)-2-methylisoindolin-1-one]"
8,0.1 to 100,"CCN1Cc2ccc(Nc3cnc(N4CCCCC4)c(F)c3)cc2C1 [Compound 195, 2-ethyl-N-(5-fluoro-6-(piperidin-1-yl)pyridin-3-yl)isoindolin-5-amine]"
9,0.1 to 100,"CN1C(=O)C(C)(C)c2cc(Nc3ccc(N4CCC(C(F)(F)F)CC4)cc3)ccc21 [Compound 293, 1,3,3-trimethyl-5-((4-(4-(trifluoromethyl)piperidin-1-yl)phenyl)amino)indolin-2-one]"
10,0.1 to 100,"CC(C)(C)c1ccc(Nc2ccc3cc(CCN)c(=O)oc3c2)cc1 [Compound 124, 3-(2-aminoethyl)-7-((4-(tert-butyl)phenyl)amino)-2H-chromen-2-one]"
11,0.1 to 100,"CN1C(=O)COc2cc(Nc3ccc(N4CCC(C(F)(F)F)CC4)cc3)cnc21 [Compound 75, 4-methyl-7-((4-(4-(trifluoromethyl)piperidin-1-yl)phenyl)amino)-2H-pyrido[3,2-b][1,4]oxazin-3(4H)-one]"
12,0.1 to 100,"Cc1cc(N2CC(C)OC(C)C2)ccc1Nc1ccc2oc(=O)n(C)c2c1 (stereo not shown) [Compound 446, 5-((4-(2,6-dimethylmorpholino)-2-methylphenyl)amino)-3-methylbenzo[d]oxazol-2(3H)-one]"
13,0.1 to 100,"CC1CN(c2ccc(Nc3ccc4c(c3)OCCN4C)cc2)CC(C)O1 (stereo not shown) [Compound 60, N-(4-(2,6-dimethylmorpholino)phenyl)-4-methyl-3,4-dihydro-2H-benzo[b][1,4]oxazin-7-amine]"
14,0.1 to 100,"Cc1cc(Nc2ccc3c(c2)OCC(=O)N3)ccc1N1CC(C)OC(C)C1 (stereo not shown) [Compound 138, 7-((4-(2,6-dimethylmorpholino)-3-methylphenyl)amino)-2H-benzo[b][1,4]oxazin-3(4H)-one]"
15,0.1 to 100,"CC(C)(C)NC(=O)N1Cc2ccc(Nc3ccc(N4CCC(C(F)(F)F)CC4)cc3)cc2C1 [Compound 205, N-(tert-butyl)-5-((4-(4-(trifluoromethyl)piperidin-1-yl)phenyl)amino) isoindoline-2-carboxamide]"
16,0.1 to 100,"Cc1cc(Nc2ccc3c(c2)n(C)c(=O)n3C)ccc1N1CCC(C)CC1 [Compound 282, 1,3-dimethyl-5-((3-methyl-4-(4-methylpiperidin-1-yl)phenyl)amino)-1,3-dihydro-2H-benzo[d]imidazol-2-one]"
17,0.1 to 100,"Cn1oc2cc(Nc3ccc(N4CCC(C(F)(F)F)CC4)cc3)ccc2c1=O [Compound 187, 2-methyl-6-((4-(4-(trifluoromethyl)piperidin-1-yl)phenyl)amino)benzo[d]isoxazol-3(2H)-one]"
18,0.1 to 100,"CN1C(=O)COc2ccc(Nc3ccc(N4CCC(C(F)(F)F)CC4)cc3)cc21 [Compound 28, 4-methyl-6-((4-(4-(trifluoromethyl)piperidin-1-yl)phenyl)amino)-2H-benzo[b][1,4]oxazin-3(4H)-one]"
19,0.1 to 100,"Cc1cc(N2CCC(C(F)(F)F)CC2)cc(C)c1Nc1ccc2c(c1)OCC(=O)N2C [Compound 79, 7-((2,6-dimethyl-4-(4-(trifluoromethyl)piperidin-1-yl)phenyl)amino)-4-methyl-2H-benzo[b][1,4]oxazin-3(4H)-one]"
20,0.1 to 100,"CN1Cc2cc(Nc3ccc(N4CCCCC4)cc3)ccc2C1=O [Compound 217, 2-methyl-5-((4-(piperidin-1-yl)phenyl)amino)isoindolin-1-one]"
21,0.1 to 100,"Cn1c(N(CC2CC2)CC2CC2)cc2ccc(Nc3ccc(N4CCC(C(F)(F)F)CC4)cc3)cc21 [Compound 397, N2,N2-bis(cyclopropylmethyl)-1-methyl-N6-(4-(4-(trifluoromethyl)piperidin-1-yl)phenyl)-1H-indole-2,6-diamine]"

# Same assay, conditions: Homo sapiens; HT-1080 cells treated with RSL3; 3-fold, 10-point dilution, 1.1 μM highest concentration; Table 3; read-out: EC50 (nM), ferroptosis inhibitory activity
row,EC50 [nM],Compound
1,0.1 to 100,"Cc1cc(N2CC(O)(C(F)(F)F)C2)ccc1Nc1ccc2c(c1)OCC(=O)N2 [Compound 632, 7-({4-[3-hydroxy-3-(trifluoromethyl)azetidin-1-yl]-2-methylphenyl}amino)-2,4-dihydro-1,4-benzoxazin-3-one]"
2,0.1 to 100,"CC1CC(C(F)(F)F)CCN1c1ccc(Nc2ccc3c(c2)OCC(=O)N3)cc1 (stereo not shown) [Compound 642, 7-((4-(2-methyl-4-(trifluoromethyl)piperidin-1-yl)phenyl)amino)-2H-benzo[b][1,4]oxazin-3(4H)-one]"
3,0.1 to 100,"Cc1cc(N2CCC(OC(F)(F)F)C2)ccc1Nc1ccc2c(c1)OCCC(=O)N2 (stereo not shown) [Compound 591, 8-((2-methyl-4-(3-(trifluoromethoxy)pyrrolidin-1-yl)phenyl)amino)-2,3-dihydrobenzo[b][1,4]oxazepin-4(5H)-one]"
4,0.1 to 100,"CCC1Oc2cc(Nc3ccc(N4CCC(C(F)(F)F)CC4)cc3C)ccc2NC1=O (stereo not shown) [Compound 483, 2-ethyl-7-((2-methyl-4-(4-(trifluoromethyl)piperidin-1-yl)phenyl)amino)-2H-benzo[b][1,4]oxazin-3(4H)-one]"
5,0.1 to 100,"Cc1cc(N2CC(C)OC(C)C2)ccc1Nc1ccc2c(c1)CCNC2 (stereo not shown) [Compound 528, N-(4-(2,6-dimethylmorpholino)-2-methylphenyl)-1,2,3,4-tetrahydroisoquinolin-6-amine]"
6,0.1 to 100,"Cc1cc(N2CC(C)C2)ccc1Nc1ccc2c(c1)OCC(=O)N2 [Compound 577, 7-((2-methyl-4-(3-methylazetidin-1-yl)phenyl)amino)-2H-benzo[b][1,4]oxazin-3(4H)-one]"
7,0.1 to 100,"Cc1cc(N2CC(C)OC(C)C2)ccc1Nc1ccc2c(c1)OCC(=O)N2CCO (stereo not shown) [Compound 456, 7-((4-(2,6-dimethylmorpholino)-2-methylphenyl)amino)-4-(2-hydroxyethyl)-2H-benzo[b][1,4]oxazin-3(4H)-one]"
8,0.1 to 100,"COc1cc(Nc2ccc3c(c2)OCC(=O)N3)c(C)cc1N1CCC(C(F)(F)F)CC1 [Compound 546, 7-((5-methoxy-2-methyl-4-(4-(trifluoromethyl)piperidin-1-yl)phenyl)amino)-2H-benzo[b][1,4]oxazin-3(4H)-one]"
